{
  "source": "patent US20250144099A1",
  "about": "“INK4 TUMOR SUPPRESSOR PROTEINS MEDIATE RESISTANCE TO CDK4/6 KINASE INHIBITORS” (MEMORIAL SLOAN-KETTERING CANCER CENTER, priority 2021, published 2025)",
  "key": {"CDK4": {"biological_target": "T1, CDK4 (Homo sapiens, UniProt P11802)", "T1 construct": "CDK4 and CDK6 were immunoprecipitated from isogenic drug sensitive (MCF7 parental cells with low CDK6); endogenous in cells; host or cells: MCF-7 parental and MCF-7 FAT1 CRISPR knockout (CDK6-high) cells", "T1 sequence (P11802 whole entry)": "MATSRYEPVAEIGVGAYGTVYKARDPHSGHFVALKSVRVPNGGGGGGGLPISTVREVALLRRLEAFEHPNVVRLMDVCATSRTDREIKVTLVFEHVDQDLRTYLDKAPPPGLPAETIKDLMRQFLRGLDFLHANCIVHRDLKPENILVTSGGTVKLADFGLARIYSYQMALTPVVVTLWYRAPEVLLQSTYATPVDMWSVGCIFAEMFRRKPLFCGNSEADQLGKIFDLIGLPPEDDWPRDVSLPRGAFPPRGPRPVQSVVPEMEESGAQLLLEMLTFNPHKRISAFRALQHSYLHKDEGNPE", "T1 sequence (P24385 whole entry partner)": "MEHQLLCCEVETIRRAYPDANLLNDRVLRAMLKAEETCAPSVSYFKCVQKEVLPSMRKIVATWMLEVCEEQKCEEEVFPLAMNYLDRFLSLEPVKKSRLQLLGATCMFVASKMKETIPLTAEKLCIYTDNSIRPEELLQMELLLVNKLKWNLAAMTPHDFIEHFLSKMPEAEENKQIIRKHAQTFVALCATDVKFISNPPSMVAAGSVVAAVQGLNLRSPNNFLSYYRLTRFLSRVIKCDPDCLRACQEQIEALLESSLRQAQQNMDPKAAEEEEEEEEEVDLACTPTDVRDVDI", "assay": "Immunoblotting of CDK4 degradation in cells", "format": "cell-based", "method": "Cell lysates were collected in RIPA buffer (Thermo Fisher Scientific) supplemented with protease and phosphatase inhibitors (Pierce). Protein concentration was quantified by using the BCA kit (Fisher Scientific). […] of protein lysates were loaded onto 4-12% SDS-PAGE gels (Invitrogen) for electrophoresis and transferred onto nitrocellular membranes. Blots were blocked with Intercept™ (TBS) Blocking Buffer (LI-COR Bioscience #927-60001) and incubated with primary antibody at 4° C. overnight. Secondary antibodies conjugated with fluorescence (LI-COR Bioscience #926-68071 and #926-32210) were incubated for 1 h at room temperature and blots were scanned by Odyssey Clx Imaging System from LI-COR Bioscience."}, "Pharmacokinetic study": {"assay": "Pharmacokinetic study", "format": "in vivo, C57BL/6 male mice", "method": "Pharmacokinetic study. C57BL/6 male mice were dosed with BSJ-05-017 solution formulation (i.p., 5/95 DMSO/10% captisol, dose 25 mg/kg) and BSJ-03-096 solution formulation (p.o., 5/95 DMSO/10%, dose 10 mg/kg). Blood samples were collected at 0.08, 0.25, 0.5, 1, 2, 4, 6, 8 and 24 hr. The blood samples were collected from sets of three mice at each time point in microcentrifuge tubes containing K2EDTA as an anticoagulant. Plasma samples were separated by centrifugation and stored below −70° C. until bioanalysis. All samples were processed for analysis by precipitation using acetonitrile and analyzed with a partially validated LC/MS/MS method (LLOQ −1.22 ng/mL for IV and PO, LLOQ −5.02 ng/mL for IP). Pharmacokinetic parameters were calculated using the noncompartmental analysis tool of WinNonlin Enterprise software (Version 6.3)."}, "[1]": {"tested_on": "CDK6-high (FAT-1 loss) tumors", "assay": "Pharmacodynamic study in tumor-bearing mice (immunoblotting of tumors)", "format": "in vivo, NSG mice", "settings": "25 mg/kg i.p., 3 consecutive days, tumors collected at 6 h", "method": "Pharmacodynamic study. NOD.Cg-Prkdc Il2rg<tm1Wjl>/SzJ (NSG) mice were obtained from the Jackson Laboratory (Stock #: 005557). Each mouse was injected with FAT1 loss cells subcutaneously 1 week after the implantation of estradiol pellets (25 mg). After the tumors reached 200 mm^3, mice were treated for 3 consecutive days with BSJ-05-017 at 25 mg/kg. Tumors were collected at 6 h. Lysates were prepared by homogenization in SDS-lysis buffer (˜1 ml/mg tissue) (50 mM Tris-HCl pH 7.4, 2% SDS) and boiled for 10 min, followed by brief sonication as described previously (65). Lysates were cleared by centrifugation at 14,000 g for 10 min and the supernatant was collected for western blotting."}, "[2]": {"tested_on": "CDK6-overexpressing xenografts", "assay": "Efficacy study, cell-derived xenograft", "format": "in vivo, NSG mice", "settings": "BSJ-05-017 50 mg/kg i.p., BSJ-03-096 50 mg/kg p.o., 25-35 days", "method": "(§1) Efficacy study. NOD.Cg-Prkdc Il2rg<tm1Wjl>/SzJ (NSG) mice were obtained from the Jackson Laboratory (Stock #: 005557). Each mouse was injected with MCF7 parental, CDK6-ovexpressing or PTEN loss cells subcutaneously 1 week after the implantation of estradiol pellets (25 mg). […] Tumor volumes were recorded every 3-4 days. Mice were sacrificed if tumors reached 1000 mm^3 or at the end of the experiment. Tumors were collected and processed as described above."}, "[3]": {"tested_on": "MCF7 parental cell-derived xenografts", "assay": "Efficacy study, cell-derived xenograft", "format": "in vivo, NSG mice", "settings": "ribociclib 25 mg/kg p.o., BSJ-05-017 50 mg/kg i.p., BSJ-03-096 50 mg/kg p.o., 25-35 days", "method": "as §1"}, "[4]": {"tested_on": "shPTEN (PTEN loss) xenografts", "assay": "Efficacy study, cell-derived xenograft", "format": "in vivo, NSG mice", "settings": "BSJ-05-017 50 mg/kg i.p., BSJ-03-096 50 mg/kg p.o., 25-35 days", "method": "as §1"}, "~900 cell lines": {"tested_on": "~900 cell lines", "assay": "PRISM cell line screening", "format": "cell-based", "settings": "8 pt. dose, 5 days", "method": "Cell Lines. The current PRISM cell set consists of 931 cell lines representing more than 45 lineages including both adherent and suspension/hematopoietic cell lines. These cell lines largely overlap with and reflect the diversity of the Cancer Cell Line Encyclopedia (CCLE) cell lines (see https://portals.broadinstitute.org/ccle). Cell lines were grown in RPMI 10% FBS without phenol red for adherent lines and RPMI 20% FBS without phenol red for suspension lines. Parental cell lines were stably infected with a unique 24-nucleotide DNA barcode via lentiviral transduction and blasticidin selection. After selection, barcoded cell lines were expanded and QCed (mycoplasma contamination test, a SNP test for confirming cell line identity, and barcode ID confirmation). Passing barcoded lines were then pooled (20-25 cell lines per pool) based on doubling time and frozen in assay-ready vials.\nPRISM Screening. […] These assay ready plates were then seeded with the thawed cell line pools. […]\nBarcode Amplification and Detection. Each cell line's unique barcode is located at the end of the blasticidin resistance gene and gets expressed as mRNA. […] Finally, Luminex beads that recognize the specific barcode sequences in the cell set were hybridized to the PCR products and then detected using a Luminex scanner which reports signal as a median fluorescent intensity (MFI)."}, "[5]": {"tested_on": "prostate cancer cell 22RV1", "assay": "Colony formation assay", "format": "cell-based", "settings": "21 days treatment"}},
  "note": "“Also recorded” adds a separate entry of the source.",
  "data": [
    {"smiles": "CC(=O)c1c(C)c2cnc(Nc3ccc(N4CCN(CCCCC(=O)N[C@H](C(=O)N5C[C@H](O)C[C@H]5C(=O)N[C@@H](C)c5ccc(-c6scnc6C)cc5)C(C)(C)C)CC4)cn3)nc2n(C2CCCC2)c1=O", "note": "[BSJ-05-017, (2S,4R)-1-((S)-2-(5-(4-(6-((6-acetyl-8-cyclopentyl-5-methyl-7-oxo-7,8-dihydropyrido[2,3-d]pyrimidin-2-yl)amino)pyridin-3-yl)piperazin-1-yl)pentanamido)-3,3-dimethylbutanoyl)-4-hydroxy-N—((S)-1-(4-(4-methylthiazol-5-yl)phenyl)ethyl)pyrrolidine-2-carboxamide]", "values": [
      {"measurement": "degradation of CDK4", "setting": "CDK4; FAT1 loss / CDK6-high CDK4/6i-resistant MCF7 cells, 24 h treatment", "result": "most significant degradation of both CDK4 and CDK6; also recorded: high potency in degrading CDK4 and CDK6"},
      {"measurement": "degradation of CDK4", "setting": "CDK4; MCF7 cells with overexpression of CDK6", "result": "effectively degrade CDK4 and CDK6"},
      {"measurement": "Cmax", "setting": "Pharmacokinetic study; male, C57BL/6, mouse, plasma, ip, single dose 25 mg/kg i.p.", "result": 2600, "unit": "nM"},
      {"measurement": "concentration at 24 h", "setting": "Pharmacokinetic study; male, C57BL/6, mouse, plasma, ip, single dose 25 mg/kg i.p., read-out: plasma concentration at 24h post dosing", "result": "~100", "unit": "nM"},
      {"measurement": "metabolic stability", "setting": "Pharmacokinetic study; single dose in mice, i.p. or p.o.", "result": "good metabolic stability"},
      {"measurement": "Rb1 phosphorylation and E2F1 expression in tumors", "setting": "[1]", "result": "significant suppression of Rb1 phosphorylation and E2F1 expression"},
      {"measurement": "degradation of CDK4 and CDK6 in tumors", "setting": "[1]", "result": "near complete degradation of CDK4 and CDK6"},
      {"measurement": "durable tumor inhibition (percent)", "setting": "[2]", "result": "−64.9", "unit": "%"},
      {"measurement": "tumor response", "setting": "[3]", "result": "sensitive"},
      {"measurement": "durable tumor inhibition (percent)", "setting": "[4]", "result": "~47.4", "unit": "%"},
      {"measurement": "inhibition of cell growth across cell lines (AUC of cell viability)", "setting": "~900 cell lines", "result": "cells of other cancer types are also sensitive"},
      {"measurement": "colony formation", "setting": "[5]", "result": "more sensitive to BSJ-05-017 than to palbociclib"}
    ]}
  ]
}
